In patent US20130072506A1, “6,8-DISUBSTITUTED PURINE COMPOSITIONS” (priority 2011, published 2013):
Read-outs that look alike come from different tables or passages of the source.

Tests used:
[1] = system: T-lymphoblastic leukemia cell line CEM; assay: In vitro cytotoxic activity (metabolisation of Calcein AM); assay type: cell-based, human; details: CEM cells, 72 hours incubation, called GI50, read-out: Cell line tested/IC50 (μmol/L) CEM
Excerpt: (§1) In vitro Cytotoxic Activity (Metabolisation of Calcein AM). Because toxic compounds negatively influence metabolic processes of cells, many standard cytotoxicity assays are based on measurement of metabolisation rate of various artificial substrates. Resulting product is then quantified, for example, by means of spectrometry. The assays can be easily modified for use in 96-well plates. For evaluation of cytotoxicity of the 6,8-disubstituted purines of this invention, a microtiter assay based on quantification of metabolisation of Calcein AM was used. The assay is widely used in drug screening programs and in chemosensitivity testing. In live cells, Calcein AM is enzymatically hydrolysed and accumulation of resulting calcein is manifested by green fluorescence.
(§2) The following human cell lines were used for routine screening of the compounds: normal diploid fibroblasts BJ, T-lymphoblastic leukemia cell line CEM, promyelocytic leukemia cell line HL-60, erytroid leukemia cell line K-562, breast carcinoma cell line MCF-7, osteosarcoma cell line HOS and melanoma cell line G-361. The cells were maintained in Nunc/Corning 80 cm^2 plastic tissue culture flasks and cultured in cell culture medium (DMEM with 5 g/l glucose, 2 mM glutamine, […] penicillin, 100 mmg/ml streptomycin, 10% fetal calf serum and sodium bicarbonate).
(§3) The cell suspensions were prepared and diluted according to the particular cell type and the expected target cell density (2.500-30.000 cells per well based on cell growth characteristics) and pipetted (80 μl) into 96-well plates. Inoculates were allowed a pre-incubation period of 24 hours at 37° C. and 5% CO2 for stabilization. Tested compound was added in total volume of […] of water at time zero. Usually, test compound was evaluated at six 3-fold dilutions. In routine testing, the highest concentration tested was 100 μM, but it could have been adjusted because of limited solubility of a compound. All drug concentrations were tested in triplicates.
(§4) Incubations of cells with the test compounds lasted for 72 hours at 37° C., in 5% CO2 atmosphere and 100% humidity. At the end of incubation period Calcein AM in PBS was added into final concentration of 1 μg/ml. After another 1 hour of incubation fluorescence (FD) was measured with the Labsystem FIA Reader Fluoroscan Ascent (UK). Growth inhibition (GI) was estimated using the following equitation: GI=(mean FDdrug exposed wells−mean FDblank)/(mean FDcontrol wells−mean FDblank)×100%. The GI50 value, the drug concentration causing 50% reduction of Calcein AM conversion, was calculated from the obtained dose response curves.

[2] = system: breast carcinoma cell line MCF-7; assay: as above; assay type: cell-based, human; details: MCF7 cells, 72 hours incubation, called GI50, read-out: Cell line tested/IC50 (μmol/L) MCF7
Excerpt: as §1, §2, §3, §4

[3] = system: erytroid leukemia cell line K-562; assay: as above; assay type: cell-based, human; details: 72 hours incubation, called GI50, read-out: Cell line tested/IC50 (μmol/L) K-562
Excerpt: as §1, §2, §3, §4

melanoma cell line G-361 = assay: as above; assay type: cell-based, human; details: G-361 cells, 72 hours incubation, called GI50, read-out: Cell line tested/IC50 (μmol/L) G-361
Excerpt: as §1, §2, §3, §4

[4] = system: normal diploid fibroblasts BJ; assay: as above; assay type: cell-based, human; details: BJ cells, 72 hours incubation, called GI50, read-out: Cell line tested/IC50 (μmol/L) BJ
Excerpt: as §1, §2, §3, §4

[5] = system: osteosarcoma cell line HOS; assay: as above; assay type: cell-based, human; details: HOS cells, 72 hours incubation, called GI50, read-out: Cell line tested/IC50 (μmol/L) HOS
Excerpt: as §1, §2, §3, §4

[6] = system: Human diploid fibroblast BJ; assay: In vitro cytotoxic activity (metabolisation of MTT); assay type: cell-based; details: 72 hours, BJ passage 18-22
Description: In vitro Cytotoxic Activity (metabolisation of Mtt). MTT ([…]) assay is a standard colorimetric assay for evaluation of cytotoxicity. Mitochondrial dehydrogenase activity converts yellow MTT into violet formazan which is measured by means of spectrometry.
Human diploid fibroblast BJ (passage 18-22) were seeded into 96-well plate (5.000 cells per well). After 6 hours cultivation medium (DMEM with 5 g/l glucose, 2 mM glutamine, 100 U/ml penicillin, 100 mmg/ml streptomycin, 10% fetal calf serum and sodium bicarbonate) was replaced with the cultivation medium containing test compounds in concentration range of 0-200 μM. Highest concentration was adjusted if the solubility of the compound was limiting. Every concentration was tested in pentaplicate. MTT was added to the cells after 72 hours incubation (final concentration 0.5 mg/ml) and incubation continued for another 3 hours. MTT was solubilised by DMSO and absorbance at 570 nm was measured. Growth inhibition (GI) was estimated using the following equitation: GI=(mean A drug exposed wells−mean Ablank/mean Acontrol wells−mean Ablank)×100%. The GI20 value, the drug concentration causing 20% decrease in mitochondrial dehydrogenase activity, was calculated from the obtained dose response curves.

[7] = Homo sapiens, K562, K-562 cells

SMILES | melting point [°C] | IC50 [1] [µmol/L] | IC50 [2] [µmol/L] | IC50 ([3]; K-562 cells) [µmol/L] | IC50 (melanoma cell line G-361) [µmol/L] | IC50 [4] [µmol/L] | IC50 [5] [µmol/L] | GI20 [6] [µM] | IC50 ([1]; Homo sapiens, CCRF-CEM) [µmol/L] | IC50 ([2]; Homo sapiens) [µmol/L] | IC50 [3, 7] [µmol/L] | IC50 (melanoma cell line G-361; Homo sapiens) [µmol/L] | IC50 ([4]; Homo sapiens) [µmol/L] | IC50 ([5]; Homo sapiens) [µmol/L]
N#Cc1nc2ncnc(NCc3ccccc3)c2[nH]1 [Compound 174, 6-Benzylamino-8-cyanopurine] | 210 to 213 | – | – | – | – | – | – | – | – | – | – | – | – | –
CC(C)=CCNc1ncnc2nc(N(C)C)[nH]c12 [Example 7 (19), 8-Dimethylamino-6-(3-methylbut-2-en-1-ylamino)purine] | 246 to 249 | – | – | – | – | – | – | – | – | – | – | – | – | –
OCCOc1nc2ncnc(NCc3ccco3)c2[nH]1 [Example 7 (18), 6-Furfurylamino-8-(2-hydroxyethyloxy)purine] | 182 to 184 | – | – | – | – | – | – | – | – | – | – | – | – | –
Nc1nc2ncnc(NCc3ccccc3F)c2[nH]1 [Compound 88] | – | > 50 | > 50 | > 50 | > 50 | > 50 | > 50 | >100 | – | – | – | – | – | –
Nc1nc2ncnc(NCc3ccc(O)c(O)c3)c2[nH]1 [Compound 103] | – | > 50 | > 50 | > 50 | > 50 | > 50 | > 50 | >100 | – | – | – | – | – | –
C/C(=C\CNc1ncnc2nc(N(C)C)[nH]c12)CO [Example 7 (23), (E)-8-Dimethylamino-6-(4-hydroxy-3-methylbut-2-en-1-ylamino)purine] | 245 to 249 | – | – | – | – | – | – | – | – | – | – | – | – | –
CC(CO)CCNc1ncnc2nc(N)[nH]c12 (centres unmarked) [Compound 86, 6-(4-hydroxy-3-methylbutylamino)-8-aminopurine] | – | – | – | – | – | – | – | >100 | > 50 | > 50 | > 50 | > 50 | > 50 | > 50
Cc1cccc(Nc2ncnc3nc(N(C)C)[nH]c23)c1 [Compound 81] | – | > 50 | > 50 | > 50 | > 50 | > 50 | > 50 | >100 | – | – | – | – | – | –
CC(=CCNc1ncnc2nc(N(C)C)[nH]c12)CO [Compound 63] | – | > 50 | > 50 | > 50 | > 50 | > 50 | > 50 | >100 | – | – | – | – | – | –
CC(CO)CCNc1ncnc2nc(N(C)C)[nH]c12 (centres unmarked) [Compound 64] | – | > 50 | > 50 | > 50 | > 50 | > 50 | > 50 | >100 | – | – | – | – | – | –
CC(=CCNc1ncnc2nc(N)[nH]c12)CO [Compound 84] | – | > 50 | > 50 | > 50 | > 50 | > 50 | > 50 | >100 | – | – | – | – | – | –
COc1ccccc1CNc1ncnc2nc(N)[nH]c12 [Compound 97] | – | > 50 | > 50 | > 50 | > 50 | > 50 | > 50 | >100 | – | – | – | – | – | –
Oc1cccc(CNc2ncnc3nc(Cl)[nH]c23)c1O [Compound 46] | – | > 100 | > 100 | > 50 | > 100 | > 100 | > 100 | >200 | – | – | – | – | – | –
COc1cccc(CNc2ncnc3nc(N)[nH]c23)c1O [Compound 104] | – | > 50 | > 50 | > 50 | > 50 | > 50 | > 50 | >100 | – | – | – | – | – | –
COc1ccc(CNc2ncnc3nc(N)[nH]c23)cc1O [Compound 105] | – | > 50 | > 50 | > 50 | > 50 | > 50 | > 50 | >100 | – | – | – | – | – | –
Nc1nc2ncnc(NCc3cccc(O)c3O)c2[nH]1 [Compound 102] | – | > 50 | > 50 | > 50 | > 50 | > 50 | > 50 | >100 | – | – | – | – | – | –
CC(C)=CCNc1ncnc2nc(NCCCN)[nH]c12 [Compound 211] | – | > 50 | > 50 | > 50 | > 50 | > 50 | > 50 | >100 | – | – | – | – | – | –
Oc1cc(O)cc(CNc2ncnc3nc(Cl)[nH]c23)c1 [Compound 47] | – | > 100 | > 100 | > 100 | > 100 | > 100 | > 100 | >200 | – | – | – | – | – | –
Nc1nc2ncnc(Nc3cccc(O)c3)c2[nH]1 [Compound 115] | – | > 50 | > 50 | > 50 | > 50 | > 50 | > 50 | >100 | – | – | – | – | – | –
Nc1nc2ncnc(NCc3ccc(Cl)cc3)c2[nH]1 [Compound 92] | – | > 50 | > 50 | > 50 | > 50 | > 50 | > 50 | >100 | – | – | – | – | – | –
Nc1nc2ncnc(NCc3cccc(Cl)c3)c2[nH]1 [Compound 91] | – | > 50 | > 50 | > 50 | > 50 | > 50 | > 50 | >100 | – | – | – | – | – | –
Nc1nc2ncnc(NCc3ccc(Cl)c(Cl)c3)c2[nH]1 [Compound 101] | – | > 50 | > 50 | > 50 | > 50 | > 50 | > 50 | >100 | – | – | – | – | – | –
C/C(=C\CNc1ncnc2nc(N)[nH]c12)CO [Compound 85, 6-(E)-(4-hydroxy-3-methylbut-2-en-1-ylamino)-8-aminopurine] | – | – | – | – | – | – | – | >100 | > 50 | > 50 | > 50 | > 50 | > 50 | > 50
Nc1nc2ncnc(NCc3cccc(F)c3)c2[nH]1 [Compound 89] | – | > 50 | > 50 | > 50 | > 50 | > 50 | > 50 | >100 | – | – | – | – | – | –
Nc1nc2ncnc(NCc3ccc(F)cc3)c2[nH]1 [Compound 90] | – | > 50 | > 50 | > 50 | > 50 | > 50 | > 50 | >100 | – | – | – | – | – | –
COc1ccc(CNc2ncnc3nc(N)[nH]c23)cc1 [Compound 99] | – | > 50 | > 50 | > 50 | > 50 | > 50 | > 50 | >100 | – | – | – | – | – | –
